Reference: patent publication US20230026259A1, “CA2 COMPOSITIONS AND METHODS FOR TUNABLE REGULATION” (Obsidian Therapeutics, Inc., priority 2019, published 2023)

System: Activated T cells from human donor
Assay: Cell surface CAR expression of CA2 regulated CAR constructs (CD19-Fc staining)
Type: cell-based
Method: CA2 DD described herein were operably linked to CARs to generate tunable CAR constructs. Activated T cells from human donor were transduced with 10 μL of lentivirus for indicated constructs. […] Cell surface CAR expression was detected the following day by staining the cells with 10 ug/mL CD19-Fc followed by an anti-human-BV421 conjugated secondary antibody. Histograms were plotted from a live cell gate. Similar experiments were also performed at day 8 and the cells were harvested at day 9. The data are shown in Table 20 as percentage CAR positive cells. The stabilization ratio was also calculated and is included in Table 20 as SR.
Activated T cells from human donor were transduced with 10 μL of lentivirus for indicated constructs. […] Cell surface CAR expression was detected the following day by staining the cells with 10 ug/mL CD19-Fc followed by an anti-human-BV421 conjugated secondary antibody. The percent of ligand induced CAR+ cells are plotted from a live cell gate relative to vehicle treated negative control cells.

Cc1onc(-c2ccccc2)c1-c1ccc(S(N)(=O)=O)cc1 [Valdecoxib]
regulation of CAR expression by titrations of Valdecoxib (T cells day 8, Valdecoxib starting at 10 μM diluting 3-fold, overnight): Little to no ligand dependent regulation of CAR
CAR regulation compared between ligands (T cells, 10 μM ligand overnight, day 7 and 9): regulation was more evident at day 7
